Some test systems named below: Enterococcus faecium; Escherichia coli BL21; Pseudomonas aeruginosa; Bacillus subtilis PS832; Escherichia coli MG1655.
Common to all, as to assay: ≥ marks a high value that may be exact or a test limit, other limits are often not marked, values filed in µg/mL are converted to µM
For assay [1], the system named is Enterobacter cloacae beta-12.
Assay [2] relates to Enterococcus faecalis ATCC 29212.
In assay [3] the test system is Pseudomonas aeruginosa PA14.
Assay [4] relates to Staphylococcus aureus ATCC 25923.
For assay [5], the system named is Staphylococcus aureus K35.
For assay [6], the system named is Staphylococcus aureus K52.
Assay [7] concerns Staphylococcus epidermidis ATCC 12228.
Assay [8] relates to Bacillus anthracis UM23-CL2.
The subject of assay [9] is Burkholderia cepacia J2540.
For assay [10], the system named is Acinetobacter baumannii ATCC BAA-1605.
Assay [11] concerns Escherichia coli ATCC 43827.
The subject of assay [12] is Pseudomonas aeruginosa ATCC 27853.
The test system of assay [13] is Pseudomonas aeruginosa ATCC 9027.
Assay [14] relates to Staphylococcus aureus ATCC 29313.
The subject of assay [15] is Staphylococcus aureus ATCC 33591.
Assay [16] concerns Xanthomonas axonopodis pv. glycines ISBF 327.
The subject of assay [17] is Escherichia coli K12 MG1655.
For assay [18], the system named is Staphylococcus aureus 68 HER 1049.
Assay [19] has as its system Escherichia coli ATCC 25922.
The test system of assay [20] is Pseudomonas aeruginosa ATCC 10419.
Assay [21] concerns Pseudomonas aeruginosa ATCC 21625.
The test system of assay [22] is Pseudomonas aeruginosa ATCC 21630.
Assay [23] deals with Pseudomonas aeruginosa LCCE.
The test system of assay [24] is Pseudomonas aeruginosa LCCI.
Assay [25] deals with Pseudomonas aeruginosa LCGE.
The subject of assay [26] is Pseudomonas aeruginosa LC.
In assay [27] the test system is Salmonella enterica subsp. enterica serovar Typhimurium C77-31.
Assay [28] deals with Staphylococcus aureus ATCC 29213.

Each structure is given as a SMILES string. ≈ marks a conversion by molar mass, not a printed value.

In the case of `CC[C@H](C)[C@H](NC(=O)CNC(=O)[C@H](CO)NC(=O)[C@H](CC(C)C)NC(=O)[C@@H](NC(=O)[C@H](CCCCN)NC(=O)CNC(=O)[C@@H](NC(=O)[C@H](CC(C)C)NC(=O)[C@@H]1CCCN1C(=O)[C@H](CC(C)C)NC(=O)[C@@H](N)Cc1ccccc1)[C@@H](C)CC)C(C)C)C(=O)N[C@@H](CC(C)C)C(N)=O` [FLPLIGKVLSGIL], the minimal inhibitory concentration (MIC) in assay [1] was ≥ 128 µM; in assay [2], 20.9 µM (≈ 28.6 µg/mL); against Enterococcus faecium, 17.5 µM (≈ 24 µg/mL); in the assay on Escherichia coli BL21, ≥ 64 µM; in [3] it was ≥ 128 µM; with Pseudomonas aeruginosa, > 64 µM. The minimal inhibitory concentration (MIC) in [4] is 5.2 µM (≈ 7.12 µg/mL); in assay [5] it was 4.4 µM (≈ 6.02 µg/mL); in [6], 4.4 µM (≈ 6.02 µg/mL); in assay [7] it was ≥ 128 µM.
On to `CC[C@H](C)[C@H](NC(=O)CN)C(=O)NCC(=O)N[C@@H](CCCCN)C(=O)N[C@@H](Cc1ccccc1)C(=O)N[C@@H](CC(C)C)C(=O)N[C@@H](Cc1cnc[nH]1)C(=O)N[C@@H](CO)C(=O)N[C@@H](C)C(=O)N[C@@H](CCCCN)C(=O)N[C@@H](CCCCN)C(=O)N[C@@H](Cc1ccccc1)C(=O)N[C@@H](Cc1ccccc1)C(=O)N[C@@H](CCCCN)C(=O)N[C@@H](CCCN=C(N)N)C(=O)N[C@H](C(=O)N[C@H](C(=O)N[C@@H](CCC(N)=O)C(=O)N[C@@H](CCCN=C(N)N)C(=O)N[C@H](C(=O)N[C@@H](CCCCN)C(=O)N[C@@H](CC(=O)O)C(=O)N[C@@H](Cc1ccccc1)C(=O)N[C@@H](CC(C)C)C(=O)N[C@@H](CCCN=C(N)N)C(=O)O)[C@@H](C)CC)C(C)C)[C@@H](C)CC` [GIGKFLHSAKKFFKRIVQRIKDFLR], for which the minimal inhibitory concentration (MIC) in assay [8] and in [9] was ≥ 82.4 µM each time.
With `CC[C@H](C)[C@H](NC(=O)[C@H](CCCCN)NC(=O)[C@H](CC(N)=O)NC(=O)[C@@H](NC(=O)[C@@H](NC(=O)[C@H](CCCCN)NC(=O)[C@@H](NC(=O)[C@H](C)NC(=O)[C@@H](NC(=O)[C@H](Cc1cnc[nH]1)NC(=O)CNC(=O)[C@H](C)NC(=O)[C@H](CC(C)C)NC(=O)[C@H](CC(=O)O)NC(=O)[C@H](CCCCN)NC(=O)[C@H](C)NC(=O)[C@H](C)NC(=O)CNC(=O)[C@H](CCCCN)NC(=O)[C@H](CC(C)C)NC(=O)[C@@H](NC(=O)[C@H](CC(=O)O)NC(=O)[C@H](CC(C)C)NC(=O)[C@@H](NC(=O)CN)C(C)C)[C@@H](C)CC)C(C)C)[C@@H](C)O)C(C)C)[C@@H](C)CC)C(N)=O` [GVLDILKGAAKDLAGHVATKVINKI], the MIC is ≥ 50.3 µM in assay [10]; ≥ 201 µM in [11]; 100 µM (≈ 254 µg/mL) in assay [12]; > 201 µM in [13]; ≥ 50 µM in assay [14]; ≥ 201 µM in assay [15]. For the same compound, in [16], the MIC came out at 25 µM (≈ 63.6 µg/mL).
`CC[C@H](C)[C@H](NC(=O)[C@H](CC(C)C)NC(=O)[C@H](CCCN=C(N)N)NC(=O)[C@H](Cc1c[nH]c2ccccc12)NC(=O)CN)C(=O)N[C@@H](CCCCN)C(=O)N[C@@H](CCCCN)C(=O)N[C@H](C(=O)N[C@@H](CC(C)C)C(=O)N[C@@H](CCCN=C(N)N)C(=O)N[C@H](C(=O)N[C@@H](Cc1ccccc1)C(=O)N[C@@H](CCCCN)C(=O)NCC(=O)N[C@@H](CC(C)C)C(=O)O)C(C)C)[C@@H](C)CC` [GWRLIKKILRVFKGL]: the MIC in assay [17] and in assay [18] was 2.19 µM (≈ 4 µg/mL) each time.
As to `CC[C@H](C)[C@H](NC(=O)[C@H](CCCCN)NC(=O)[C@H](CCCCN)NC(=O)[C@H](CC(C)C)NC(=O)[C@H](CCCN=C(N)N)NC(=O)[C@H](CCCCN)NC(=O)[C@H](CCCN=C(N)N)NC(=O)[C@H](Cc1c[nH]c2ccccc12)NC(=O)[C@H](CCCCN)NC(=O)[C@H](CCCCN)NC(=O)[C@H](CCCN=C(N)N)NC(=O)[C@H](CC(C)C)NC(=O)[C@H](CCCN=C(N)N)NC(=O)[C@H](CCCN=C(N)N)NC(=O)[C@H](Cc1ccccc1)NC(=O)[C@@H](N)CCCN=C(N)N)C(N)=O` [RFRRLRKKWRKRLKKI], the minimum inhibitory concentration (MIC) in assay [19] was 64 µM (≈ 145 µg/mL); in assay [20] it was 4 µM (≈ 9.07 µg/mL); in [21] it was 4 µM (≈ 9.07 µg/mL); in assay [22], 4 µM (≈ 9.07 µg/mL); in assay [23], 4 µM (≈ 9.07 µg/mL); in assay [24], 2 µM (≈ 4.54 µg/mL). Besides, the MIC in [25] is 4 µM (≈ 9.07 µg/mL); in [26], 1 µM (≈ 2.27 µg/mL); in assay [27] it was ≥ 128 µM; in [28], 128 µM (≈ 290 µg/mL); in [7], 64 µM (≈ 145 µg/mL).
`CC[C@H](C)[C@H](NC(=O)[C@H](CCCN=C(N)N)NC(=O)[C@H](CCCCN)NC(=O)[C@H](CC(C)C)NC(=O)[C@H](CC(C)C)NC(=O)CNC(=O)[C@H](Cc1cnc[nH]1)NC(=O)[C@@H](NC(=O)[C@@H](N)CCCN=C(N)N)[C@@H](C)O)C(=O)N[C@@H](CCCCN)C(=O)N[C@H](C(=O)N[C@@H](CC(C)C)C(=O)N[C@@H](CC(C)C)C(N)=O)[C@@H](C)O` [RTHGLLKRIKTLL]: the MIC in the assay with Bacillus subtilis PS832 was 4 µM (≈ 6.19 µg/mL); in the assay on Escherichia coli MG1655 it was 8 µM (≈ 12.4 µg/mL).

As usually defined, the MIC is the lowest concentration found to suppress growth.
